Values joined by “and” are separate entries in the source; they are usually repeats but may differ in a detail not shown here. Equal entries are not always repeated.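 Compound exposure: 48 hours, 5 concentrations, 96-well plates. GI50: concentration for 50% inhibition of growth. Definition used: TGI = concentration required for complete inhibition of growth.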

Test systems include SF-268 CNS; MCF7 breast; HOP-62 NSCLC; NCI-H522 lung; HCT-15 colon; NCI/ADR-RES ovarian; M14 melanoma; ACHN renal; M19-MEL melanoma; SNB-78 CNS.
Common to all, as to test: NCI tumour cell line growth inhibition, 48 h

With `CNC(=O)c1c(NC(=O)c2ccc(C(C)C)cc2)sc2c1CCC(=O)C2`, the GI50 in the assay on SF-268 CNS was 0.443 µM; in the assay with MCF7 breast it was 0.428 µM; with HOP-62 NSCLC, 3.41 µM; in the assay on NCI-H522 lung, 0.149 µM; in the assay with HCT-15 colon it was 0.216 µM; in the assay on NCI/ADR-RES ovarian, 0.461 µM. Moreover, the results for the GI50 in the assay with M14 melanoma and in the assay on ACHN renal were 0.454 µM and 0.279 µM, respectively. The TGI was found to be 2.41 µM in the assay with SF-268 CNS; 5.32 µM in the assay with MCF7 breast; 18.4 µM in the assay with HOP-62 NSCLC; 1.04 µM in the assay on NCI-H522 lung; 1.47 µM with HCT-15 colon; 2.24 µM with NCI/ADR-RES ovarian. Also, the TGI with M14 melanoma is 2.03 µM; with ACHN renal, 1.14 µM.

`C/C=C1\C[C@@H]2C(OC)Nc3cc(O)c(OC)cc3C(=O)N2C1` (some centres not stated): the GI50 was 0.0027 µM in the assay on SF-268 CNS; 0.00692 µM in the assay on MCF7 breast; 0.00296 µM in the assay with HOP-62 NSCLC; 0.00119 µM in the assay with NCI-H522 lung; 0.00733 µM in the assay with HCT-15 colon. Also, the TGI in the assay on SF-268 CNS was 0.174 µM and 1.71 µM; in the assay on MCF7 breast, 2.83 µM; in the assay with HOP-62 NSCLC, 0.0155 µM and < 0.0566 µM; with NCI-H522 lung, 0.00432 µM; in the assay with NCI/ADR-RES ovarian, 0.0384 µM and < 0.0116 µM; in the assay on M19-MEL melanoma, 0.0413 µM and 0.0101 µM. Besides, the TGI in the assay with M14 melanoma was 0.0428 µM and < 0.032 µM; with ACHN renal it was 0.0294 µM.

Take `COC(=O)c1cc(NC(=O)CN(CCN(CC(=O)O)CC(=O)Nc2ccc(O)c(C(=O)OC)c2)CC(=O)O)ccc1O`: the GI50 is 43.2 µM in the assay with SF-268 CNS; 33.5 µM in the assay with MCF7 breast; 42.3 µM with HOP-62 NSCLC; 46.4 µM in the assay on NCI-H522 lung; greater than 100 µM in the assay on HCT-15 colon; greater than 100 µM in the assay on NCI/ADR-RES ovarian. The GI50 was 41.9 µM with M14 melanoma and 36.7 µM with ACHN renal. For the same molecule, the TGI in the assay with SF-268 CNS, in the assay with MCF7 breast, in the assay with HOP-62 NSCLC, in the assay on NCI-H522 lung, in the assay with HCT-15 colon and in the assay on NCI/ADR-RES ovarian was greater than 100 µM in each case. Moreover, the TGI in the assay with M14 melanoma and in the assay on ACHN renal was greater than 100 µM throughout.

Take `CC(=O)OCc1c(C)c2ccccc2n1C(C)=O`: the TGI was greater than 100 µM with SF-268 CNS; greater than 100 µM with HOP-62 NSCLC; 39.2 µM with NCI-H522 lung; greater than 100 µM in the assay with M19-MEL melanoma; greater than 100 µM with M14 melanoma; 71 µM in the assay with ACHN renal.

Regarding `COc1ccc2c([nH]c3cc(O)c(C)cc32)c1CC=C(C)C`, the GI50 in the assay with SF-268 CNS is 9.66 µM; in the assay with NCI-H522 lung it was 5.92 µM; in the assay with HCT-15 colon it was 5.14 µM; with M19-MEL melanoma it was 12.2 µM; with M14 melanoma it was 1.62 µM; in the assay on ACHN renal it was 9.35 µM. Also, the TGI in the assay on SF-268 CNS was greater than 25 µM; in the assay with NCI-H522 lung, 17.3 µM; with HCT-15 colon it was greater than 25 µM; in the assay on M19-MEL melanoma, greater than 25 µM; in the assay on M14 melanoma, 9.29 µM; in the assay with SNB-78 CNS, greater than 25 µM. In the assay on ACHN renal, this molecule registered a TGI greater than 25 µM.

Consider `CC(=O)OC1CC(C)c2c(Cl)ncnc21` (configuration not stated), for which the GI50 was greater than 100 µM in the assay on SF-268 CNS; greater than 100 µM with MCF7 breast; greater than 100 µM with HOP-62 NSCLC; 18 µM in the assay on NCI-H522 lung; greater than 100 µM with HCT-15 colon; greater than 100 µM with NCI/ADR-RES ovarian. The GI50 in the assay with M14 melanoma and in the assay on ACHN renal was greater than 100 µM each time. In addition, the TGI was greater than 100 µM in the assay with SF-268 CNS; greater than 100 µM in the assay on MCF7 breast; greater than 100 µM in the assay on HOP-62 NSCLC; 41.7 µM with NCI-H522 lung; greater than 100 µM in the assay with HCT-15 colon; greater than 100 µM in the assay with NCI/ADR-RES ovarian. Also, the TGI in the assay on M14 melanoma and in the assay with ACHN renal was greater than 100 µM each time.

With `COc1ccc(CCN2COc3ccc4ccc(=O)oc4c3C2)cc1OC`, the TGI with SF-268 CNS, in the assay with MCF7 breast, in the assay on HOP-62 NSCLC, in the assay with NCI-H522 lung, with HCT-15 colon and in the assay with NCI/ADR-RES ovarian was greater than 100 µM throughout. For the same molecule, the TGI in the assay with M14 melanoma and in the assay on ACHN renal was greater than 100 µM each time.

For `CN1CCc2cc(O)c3cc2C1Cc1ccc(cc1)Oc1cc(ccc1O)CC1c2c(cc4c(c2O3)OCO4)CCN1C` (configuration not stated), the TGI is greater than 100 µM in the assay on SF-268 CNS; 60 µM in the assay with HCT-15 colon; 32.2 µM in the assay with M14 melanoma; greater than 100 µM with SNB-78 CNS; greater than 100 µM in the assay on ACHN renal.

With `Cc1nc2sc(C(=O)Nc3cccc(Cl)c3C)c(N)c2cc1C(=O)c1ccccc1`, the GI50 with SF-268 CNS was 0.375 µM; with MCF7 breast it was 0.168 µM; in the assay on HOP-62 NSCLC, 0.296 µM; in the assay with NCI-H522 lung, 0.205 µM; with HCT-15 colon it was 0.226 µM; with NCI/ADR-RES ovarian it was 0.192 µM. The values for the GI50 with M14 melanoma and in the assay on ACHN renal were 0.214 µM and 0.344 µM, respectively. Further, the TGI in the assay with SF-268 CNS, with MCF7 breast, in the assay with HOP-62 NSCLC, with HCT-15 colon, in the assay with M14 melanoma and with ACHN renal was greater than 50 µM each time.

Consider `Nc1ncnc2c1c(C(=O)NO)cn2C1OC(CO)C(O)C1O` (configuration not stated), for which the GI50 in the assay with SF-268 CNS is 0.397 µM; with MCF7 breast, 0.213 µM; in the assay on HOP-62 NSCLC, 0.38 µM; with NCI-H522 lung, 0.435 µM; in the assay on HCT-15 colon, 0.213 µM; with NCI/ADR-RES ovarian it was 0.137 µM. The GI50 is 0.285 µM with M14 melanoma and 0.203 µM in the assay with ACHN renal. In addition, the TGI in the assay on MCF7 breast was 1.69 µM; with HOP-62 NSCLC, greater than 22 µM; with NCI-H522 lung, 4.62 µM; in the assay with HCT-15 colon it was 1.89 µM; in the assay on M14 melanoma it was 1.53 µM; in the assay on ACHN renal, 1.15 µM.

Regarding `O=C1C(Cl)=C(Nc2cccc(O)c2)C(=O)N1c1ccc(Cl)cc1Cl`, the GI50 in the assay with SF-268 CNS was 28.4 µM; with MCF7 breast, 19.8 µM; in the assay with HOP-62 NSCLC, 32.8 µM; in the assay with NCI-H522 lung, 13.8 µM; in the assay on HCT-15 colon, 29.4 µM; in the assay with NCI/ADR-RES ovarian it was 32.2 µM. Moreover, the GI50 in the assay on M14 melanoma is 47.6 µM; with ACHN renal, 30.6 µM. In addition, the TGI in the assay with SF-268 CNS is greater than 100 µM; in the assay on MCF7 breast it was 63.3 µM; with HOP-62 NSCLC it was greater than 100 µM; in the assay on NCI-H522 lung it was 32.9 µM; in the assay with HCT-15 colon, greater than 100 µM; with NCI/ADR-RES ovarian, greater than 100 µM. In addition, the TGI in the assay with M14 melanoma and in the assay on ACHN renal was greater than 100 µM in each case.
